# Laboratory results: publication PMC8802628, “Selective activation of PFKL suppresses the phagocytic oxidative burst” (Cell, 2021)
# Legend:
# PMNs [1] = experiment: ROS detection assay (ROS-Glo) in neutrophils; type: cell-based, human; conditions: over 2 h
# Experimental: ROS were measured using the ROS-Glo bioluminescent assay (Promega) for the direct detection of H2O2. Briefly, neutrophils (2 × 10^4) were plated in white 96-well plates (Greiner) in high glucose DMEM medium. Cells were cultured with DMSO vehicle, 0.5 μM NA-11, 5 μM LDC7559, 100 μM apocynin, or 200 μM thionicotinamide for 30 min, and then stimulated with 50 nM PMA or treated with 10 μg/mL zymosan beads, pre-opsonized in 20% serum for 30 min. Luminescence, after the addition of H2O2 substrate solution of 20 min, and then ROS-Glo detection solution for 20 min, was recorded on a plate reader (Envision).
# E. coli = experiment: Phagocytosis assay: E. coli C.F.U. recovered from PMNs; type: cell-based, human; conditions: neutrophils pretreated 30 min
# Experimental: Neutrophils (1 × 10^6) were cultured in 6-well tissue in RPMI medium containing DMSO vehicle, 0.5 μM NA-11, 0.5 μM NA-4, 100 μM Apocynin or 100 μM thionicotinamide (TN) for 30 min. E. coli grown in LB broth overnight (2 mL) were opsonized with human serum (1 mL pooled from three donors) for 1 h at room temperature. Opsonized bacteria were washed with PBS, resuspended in LB broth to an OD600of 0.1 and then added to cultured neutrophils at an MOI of 1 for 30 min. Cells were washed with medium three times and then cultured with 300 μg/mL gentamicin for 2 h to kill any extracellular bacteria. Cells were then washed again, twice with medium and once with PBS. To release phagocytosed bacteria, neutrophils were lysed in 0.05% saponin in PBS. Lysates were passed through a 25’ gauge needed several times and the number of viable phagocytosed bacteria was determined by colony counting.
# PMNs [2] = experiment: Phagocytosis of zymosan particles by PMNs; type: cell-based, human; conditions: neutrophils, zymosan 2 h
# Experimental: Figure S7. NA-11 activates PFKL to prevent the oxidative burst and impair neutrophil defenses, related to Figures 4 and 6
# (A) PFK1 activity in PMN lysates. Cells were pretreated with 0.5 mM NA-11, 5 mM LDC7559, 100 mM apocynin, 200 mM thionicotinamid e (TN), 1 mM MEK inhibitor U0126, or DMSO vehicle for 30 min, or 1 mM proteasome inhibitor bortezomib for 1 h, and then activated with 50 nM PMA for 30 min where indicated. Bars represent the mean ± s.d. of cells from 3 donors. (B) NADH:NAD+ ratio in PMA-activated PMNs. Cells were pretreated with 0.5 mM NA-11 or DMSO vehicle for 30 min, and then activated with 50 nM PMA for 30 min. Data are the mean ± s.d. of cells from 3 donors. (C) Immunolabeling of citrullinated histone H3 (magenta) and myeloperoxidase (red) in PMNs pretreated with 0.5 mM NA-11 or DMSO vehicle for 30 min and then stimulated for 4 h with 50 nM PMA, 10 mg/mL extracellular LPS, 0.5 mg/mL cholesterol crystals, or 25 mM nigericin. Chromatin is stained green. Scale bar, […]. Results are representative of 3 independent experiments.
# (D) Fluorescence micrographs of PMNs pretreated with 0.5 mM NA-11, 200 mM thionicotinamide (TN), 0.5 mM NA-4, or DMSO vehicle for 30 min, and then incubated with serum-opsonized Texas Red-conjugated zymosan particles (10 mg/mL) for 2 h. […]
# [3] = substrate: O=C(CO)[C@@H](O)[C@H](O)[C@H](O)COP(=O)(O)O; experiment: Recombinant PFKM activity assay; type: biochemical, human; conditions: other: PFKM wild type, pH 7.0, 250 μM ATP, 25.0 °C
# Description: (§1) Recombinant N-terminal His-tagged human PFKL (NP_002617), PFKM (NP_000280), and PFKP (NM_002627.4) were generated as described ([Webb et al., 2015], [2017]). Point mutants of PFK1 were generated using the QuikChange Lightning kit (Aligent).
# (§2) His-tagged PFK1 was expressed and purified as described with slight modifications ([Webb et al., 2015], [2017]). Briefly, baculovirus was generated using the Bac-to-Bac Expression system (Invitrogen). PFK1 was expressed in 2-5 × 10^6 sf9 cells at a multiplicity of infection of two for 48 h. […] Protein was quantified using a Bradford Protein Assay kit (ThermoFisher Scientific), and aliquotes frozen in liquid nitrogen for storage at −80°C.
# (§3) PFK1 activity was determined using the rate of FBP production via an auxiliary enzyme assay adapted to a 96-well format ([Brüser et al., 2012]; [Webb et al., 2015]). […] For assays containing FBP, the rate of ADP production was determined using the auxiliary enzymes pyruvate kinase (PK) and lactate dehydrogenase (LDH) (MilliporeSigma) in a buffer containing 250 μM phosphoenolpyruvic acid, […] NADH, 50 mM HEPES pH 7.5, 100 mM KCl, 1 mM DTT, and effector concentrations as described in the text. […] Absorbance at 340 nm was measured using a Varioskan LUX Multimode microplate reader (ThermoFisher). […]
# [4] = substrate: O=C(CO)[C@@H](O)[C@H](O)[C@H](O)COP(=O)(O)O; experiment: Recombinant PFKM+pocket activity assay; type: biochemical, human; conditions: other: PFKM+pocket, pH 7.0, 250 μM ATP, 25.0 °C
# Description: as §1, §2, §3
# [5] = substrate: O=C(CO)[C@@H](O)[C@H](O)[C@H](O)COP(=O)(O)O; experiment: Recombinant PFKL3Mut activity assay; type: biochemical, human; conditions: other: PFKL3Mut, pH 7.5, 225 μM ATP, 25.0 °C
# Description: as §1, §2, §3
molecule,measurement,setting,value
"NC(=S)c1cccnc1 [TN, thionicotinamide, reference compound]",ROS production during phagocytosis of opsonized zymosan,PMNs [1],kept ROS production at basal levels
same,killing of phagocytosed bacteria (bacterial colonies recovered),E. coli,less efficient killers of phagocytosed bacteria
same,phagocytosis (intracellular zymosan particles),PMNs [2],neither NA-11 nor TN affected phagocytosis
"human PFKM (Homo sapiens) (protein, made in house; host or cells: Sf9 insect cells (baculovirus)) MTHEEHHAAKTLGIGKAIAVLTSGGDAQGMNAAVRAVVRVGIFTGARVFFVHEGYQGLVDGGDHIKEATWESVSMMLQLGGTVIGSARCKDFREREGRLRAAYNLVKRGITNLCVIGGDGSLTGADTFRSEWSDLLSDLQKAGKITDEEATKSSYLNIVGLVGSIDNDFCGTDMTIGTDSALHRIMEIVDAITTTAQSHQRTFVLEVMGRHCGYLALVTSLSCGADWVFIPECPPDDDWEEHLCRRLSETRTRGSRLNIIIVAEGAIDKNGKPITSEDIKNLVVKRLGYDTRVTVLGHVQRGGTPSAFDRILGSRMGVEAVMALLEGTPDTPACVVSLSGNQAVRLPLMECVQVTKDVTKAMDEKKFDEALKLRGRSFMNNWEVYKLLAHVRPPVSKSGSHTVAVMNVGAPAAGMNAAVRSTVRIGLIQGNRVLVVHDGFEGLAKGQIEEAGWSYVGGWTGQGGSKLGTKRTLPKKSFEQISANITKFNIQGLVIIGGFEAYTGGLELMEGRKQFDELCIPFVVIPATVSNNVPGSDFSVGADTALNTICTTCDRIKQSAAGTKRRVFIIETMGGYCGYLATMAGLAAGADAAYIFEEPFTIRDLQANVEHLVQKMKTTVKRGLVLRNEKCNENYTTDFIFNLYSEEGKGIFDSRKNVLGHMQQGGSPTPFDRNFATKMGAKAMNWMSGKIKESYRNGRIFANTPDSGCVLGMRKRALVFQPVAELKDQTDFEHRIPKEQWWLKLRPILKILAKYEIDLDTSDHAHLEHITRKRSGEAAV",Km,[3],610 ± 50 µM
"PFKM+pocket (R315 to lysine) (Homo sapiens; R315K) (protein, made in house; host or cells: Sf9 insect cells (baculovirus)) MTHEEHHAAKTLGIGKAIAVLTSGGDAQGMNAAVRAVVRVGIFTGARVFFVHEGYQGLVDGGDHIKEATWESVSMMLQLGGTVIGSARCKDFREREGRLRAAYNLVKRGITNLCVIGGDGSLTGADTFRSEWSDLLSDLQKAGKITDEEATKSSYLNIVGLVGSIDNDFCGTDMTIGTDSALHRIMEIVDAITTTAQSHQRTFVLEVMGRHCGYLALVTSLSCGADWVFIPECPPDDDWEEHLCRRLSETRTRGSRLNIIIVAEGAIDKNGKPITSEDIKNLVVKRLGYDTRVTVLGHVQRGGTPSAFDRILGSKMGVEAVMALLEGTPDTPACVVSLSGNQAVRLPLMECVQVTKDVTKAMDEKKFDEALKLRGRSFMNNWEVYKLLAHVRPPVSKSGSHTVAVMNVGAPAAGMNAAVRSTVRIGLIQGNRVLVVHDGFEGLAKGQIEEAGWSYVGGWTGQGGSKLGTKRTLPKKSFEQISANITKFNIQGLVIIGGFEAYTGGLELMEGRKQFDELCIPFVVIPATVSNNVPGSDFSVGADTALNTICTTCDRIKQSAAGTKRRVFIIETMGGYCGYLATMAGLAAGADAAYIFEEPFTIRDLQANVEHLVQKMKTTVKRGLVLRNEKCNENYTTDFIFNLYSEEGKGIFDSRKNVLGHMQQGGSPTPFDRNFATKMGAKAMNWMSGKIKESYRNGRIFANTPDSGCVLGMRKRALVFQPVAELKDQTDFEHRIPKEQWWLKLRPILKILAKYEIDLDTSDHAHLEHITRKRSGEAAV",Km,[4],1410 ± 80 µM
"PFKL (K315R, V545L, and V582M), PFKL3Mut (Homo sapiens; K315R/V545L/V582M) (protein, made in house; host or cells: Sf9 insect cells (baculovirus)) MAAVDLEKLRASGAGKAIGVLTSGGDAQGMNAAVRAVTRMGIYVGAKVFLIYEGYEGLVEGGENIKQANWLSVSNIIQLGGTIIGSARCKAFTTREGRRAAAYNLVQHGITNLCVIGGDGSLTGANIFRSEWGSLLEELVAEGKISETTARTYSHLNIAGLVGSIDNDFCGTDMTIGTDSALHRIMEVIDAITTTAQSHQRTFVLEVMGRHCGYLALVSALASGADWLFIPEAPPEDGWENFMCERLGETRSRGSRLNIIIIAEGAIDRNGKPISSSYVKDLVVQRLGFDTRVTVLGHVQRGGTPSAFDRILSSRMGMEAVMALLEATPDTPACVVTLSGNQSVRLPLMECVQMTKEVQKAMDDKRFDEATQLRGGSFENNWNIYKLLAHQKPPKEKSNFSLAILNVGAPAAGMNAAVRSAVRTGISHGHTVYVVHDGFEGLAKGQVQEVGWHDVAGWLGRGGSMLGTKRTLPKGQLESIVENIRIYGIHALLVVGGFEAYEGVLQLVEARGRYEELCIVMCVIPATISNNVPGTDFSLGSDTALNAAMESCDRIKQSASGTKRRVFIVETMGGYCGYLATMTGIAVGADAAYVFEDPFNIHDLKVNVEHMTEKMKTDIQRGLVLRNEKCHDYYTTEFLYNLYSSEGKGVFDCRTNVLGHLQQGGAPTPFDRNYGTKLGVKAMLWLSEKLREVYRKGRVFANAPDSACVIGLKKKAVAFSPVTELKKDTDFEHRMPREQWWLSLRLMLKMLAQYRISMAAYVSGELEHVTRRTLSMDKGF",Km,[5],570 ± 60 µM
